Where two headings read alike, the source gives them in different places.
Assays:
Assay type in all cases: cell-based, human
[1] = tested on: p-ERK in NCI-H441 cells (KRAS G12V mutation); assay: Cell p-ERK assay (HTRF) in NCI-H441 cells; details: NCI-H441 cells, 3 h compound incubation, HTRF p-ERK T202/Y204, read-out: H441 p-ERK IC50
Summary of the method: (§1)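 Cells are plated (AsPC-1 at 10000, NCI-H441 at 20000 per well) and cultured overnight. Next day compound is added in a 3.16-fold dilution series with 0.1% DMSO and left 3 h. After lysis, p-ERK antibodies incubate 4 h before HTRF reading and four-parameter IC50 fitting.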

[2] = tested on: p-ERK in AsPC-1 cells (KRAS G12D mutation); assay: Cell p-ERK assay (HTRF) in AsPC-1 cells; details: AsPC-1 cells, 3 h compound incubation, HTRF p-ERK T202/Y204, read-out: AsPC-1 p-ERK IC50
Summary of the method: as §1

[3] = tested on: AsPC-1 cells (KRAS G12D mutation); assay: 3D cell proliferation assay (CellTiter Glo-3D), AsPC-1; details: medium with 2% FBS, read-out: AsPC-1 AP IC50
Summary of the method: (§2)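 Luminescence read-out (CellTiter-Glo 3D) after 5-day compound exposure at 37 °C, 5% CO2. Cells: NCI-H441 and AsPC-1, 800/well, RPMI-1640 + 2% FBS, 0.1% DMSO final. IC50 by four-parameter fit of % inhibition against log concentration.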

NCI-H441 cells = assay: 3D cell proliferation assay (CellTiter Glo-3D), NCI-H441; details: medium with 2% FBS, read-out: H441 AP IC50
Summary of the method: as §2

[4] = Homo sapiens, ASPC1, 3D cell proliferation (CellTiter Glo-3D)
[5] = Homo sapiens, NCI-H441, 3D cell proliferation (CellTiter Glo-3D)
[6] = 3D cell proliferation (CellTiter Glo-3D)

Row | Compound | IC50 ([1]; Homo sapiens, NCI-H441, 3 h) [nM] | IC50 ([2]; Homo sapiens, ASPC1, 3 h) [nM] | IC50 [3, 4] [nM] | IC50 (NCI-H441 cells; [5]) [nM] | IC50 [1] [nM] | IC50 [2] [nM] | IC50 [3, 6] [nM] | IC50 (NCI-H441 cells; [6]) [nM]
1 | CCn1c(-c2cc(C#CC(C)(C)N3CCCOCC3)cnc2[C@H](C)OC)c2c3cc(ccc31)-c1csc(n1)C[C@H](NC(=O)[C@H]1[C@H](C)[C@@H]1C)C(=O)N1CCC[C@H](N1)C(=O)OCC(C)(C)C2 (atropisomer, axis not shown; (Ra)) [Compound Z625, (1r,2R,3S)—N-((6S,4S,Z)-1^1-ethyl-(Ra)-1^2-(2-((S)-1-methoxyethyl)-5-(3-(1,4-oxazepan-4-yl)-3-methylbut-1-yn-1-yl)pyridin-3-yl)-10,10-dimethyl-5,7-dioxo-6^1,6^2,6^3,6^4,6^5,6^6hexahydro-1^1H-8-oxa-2(4,2)-thiazola-1(5,3)-indola-6(1,3)-pyridazinacycloundecaphane-4-yl)-2,3-dimethylcyclopropane-1-carboxamide] | 0.2 | 0.33 | 0.36 | 0.24 | – | – | – | –
2 | CCn1c(-c2cc(C#CC(C)(C)N3CCC(OC)CC3)cnc2[C@H](C)OC)c2c3cc(ccc31)-c1csc(n1)C[C@H](NC(=O)[C@H]1[C@H](C)[C@@H]1C)C(=O)N1CCC[C@H](N1)C(=O)OCC(C)(C)C2 (atropisomer, axis not shown; (Ra)) [Compound Z628-1, (1r,2R,3S)—N-((6^3S,4S,Z)-1^1-ethyl-(Ra)-1^2-(2-((S)-1-methoxyethyl)-5-(3-(4-methoxypiperidin-1-yl)-3-methylbut-1-yn-1-yl)pyridin-3-yl)-10,10-dimethyl-5,7-dioxo-6^1,6^2,6^3,6^4,6^5,6^6hexahydro-1^1H-8-oxa-2(4,2)-thiazola-1(5,3)-indola-6(1,3)-pyridazinacycloundecaphane-4-yl)-2,3-dimethylcyclopropane-1-carboxamide] | – | – | – | – | 0.35 | 0.31 | 0.62 | 0.34
3 | CCn1c(-c2cc(C#C[C@]3(C)CCCN3C)cnc2[C@H](C)OC)c2c3cc(ccc31)-c1csc(n1)C[C@H](NC(=O)[C@H]1[C@H](C)[C@@H]1C)C(=O)N1CCC[C@H](N1)C(=O)OCC(C)(C)C2 (atropisomer, axis not shown; (Ra)) [Compound Z642] | 0.29 | 0.4 | 0.65 | 0.36 | – | – | – | –
4 | CCn1c(-c2cc(C#C[C@@]3(C)CCCN3C)cnc2[C@H](C)OC)c2c3cc(ccc31)-c1csc(n1)C[C@H](NC(=O)[C@H]1[C@H](C)[C@@H]1C)C(=O)N1CCC[C@H](N1)C(=O)OCC(C)(C)C2 (atropisomer, axis not shown; (Ra)) [Compound Z643, (1r,2R,3S)—N-((6^3S,4S,Z)—(Ra)-1-(5-(((R)-1,2-dimethylpyrrolidin-2-yl)ethynyl)-2-((S)-1-methoxyethyl)pyridin-3-yl)-1^1-ethyl-10,10-dimethyl-5,7-dioxo-6^1,6^2,6^3,6^4,6^5,6^6-hexahydro-1^1H-8-oxa-2(4,2)-thiazola-1(5,3)-indola-6(1,3)-pyridazinacycloundecaphane-4-yl)-2,3-dimethylcyclopropane-1-carboxamide] | 0.22 | 0.51 | 0.64 | 0.3 | – | – | – | –
5 | CCn1c(-c2cc(C#CC3(N4CCCOCC4)CC3)cnc2[C@H](C)OC)c2c3cc(ccc31)-c1csc(n1)C[C@H](NC(=O)[C@H]1[C@H](C)[C@@H]1C)C(=O)N1CCC[C@H](N1)C(=O)OCC(C)(C)C2 (atropisomer, axis not shown; (Ra)) [Compound Z645, (1r,2R,3S)—N-((4S,Z)—(Ra)-1-(5-((1-(1,4-oxazepan-4-yl)cyclopropyl)ethynyl)-2-((S)-1-methoxyethyl)pyridin-3-yl)-1^1-ethyl-10,10-dimethyl-5,7-dioxo-6^1,6^2,6^3,6^4,6^5,6^6-hexahydro-1^1H-8-oxa-2(4,2)-thiazola-1(5,3)-indola-6(1,3)-pyridazinacycloundecaphane-4-yl)-2,3-dimethylcyclopropane-1-carboxamide] | – | – | – | – | 0.48 | 0.15 | 0.81 | 0.5
6 | CCn1c(-c2cc(N3CCN(C)CC3)cnc2[C@H](C)OC)c2c3cc(ccc31)-c1csc(n1)C[C@H](Nc1nnc3cc(C)ccn13)C(=O)N1CCC[C@H](N1)C(=O)OCC(C)(C)C2 (atropisomer, axis not shown; (Ra)) [Compound Z653, (6^3S,4S,Z)-1^1-ethyl-(Ra)-1^2-(2-((S)-1-methoxyethyl)-5-(4-methylpiperazin-1-yl)pyridin-3-yl)-10,10-dimethyl-4-((7-methyl-[1,2,4]triazolo[4,3-a]pyridin-3-yl)amino)-6^1,6^2,6^3,6^4,6^5,6^6-hexahydro-1^1H-8-oxa-2(4,2)-thiazola-1(5,3)-indola-6(1,3)-pyridazinacycloundecaphane-5,7-dione] | 4.55 | 13.4 | 21.1 | 4.06 | – | – | – | –
7 | CCn1c(-c2cc(OCCN3CCOC4(CC4)C3)cnc2[C@H](C)OC)c2c3cc(ccc31)-c1csc(n1)C[C@H](NC(=O)[C@@H]1[C@@H](C)[C@H]1c1ccncn1)C(=O)N1CCC[C@H](N1)C(=O)OCC(C)(C)C2 (atropisomer, axis not shown; (Ra)) [Compound Z661-2, (1R,2S,3R)—N-((6^3S,4S,Z)—(Ra)-1^2-(5-(2-(4-oxa-7-azaspiro[2,5]octan-7-yl)ethoxy)-2-((S)-1-methoxyethyl)pyridin-3-yl)-11-ethyl-10,10-dimethyl-5,7-dioxo-6^1,6^2,6^3,6^4,6^5,6^6-hexahydro-1^1H-8-oxa-2(4,2)-thiazola-1(5,3)-indola-6(1,3)-pyridazinacycloundecaphane-4-yl)-2-methyl-3-(pyrimidin-4-yl)cyclopropane-1-carboxamide] | 1.58 | 3.99 | 2.68 | 0.83 | – | – | – | –
8 | CCc1ccn2c(N[C@H]3Cc4nc(cs4)-c4ccc5c(c4)c(c(-c4cc(N6CCN(C)CC6)cnc4[C@H](C)OC)n5CC)CC(C)(C)COC(=O)[C@@H]4CCCN(N4)C3=O)nnc2c1 (atropisomer, axis not shown; (Ra)) [Compound Z662, (6^3S,4S,Z)-1^1-ethyl-4-((7-ethyl-[1,2,4]triazolo[4,3-a]pyridin-3-yl)amino)-(Ra)-1^2-(2-((S)-1-methoxyethyl)-5-(4-methylpiperazin-yl)pyridin-3-yl)-10,10-dimethyl-6^1,6^2,6^3,6^4,6^5,6^6-hexahydro-1^1H-8-oxa-2(4,2)-thiazola-1(5,3)-indola-6(1,3)-pyridazinacycloundecaphane-5,7-dione] | 5.4 | 34.4 | 67 | 11 | – | – | – | –
9 | CCn1c(-c2cc(OCCN3CCS(=O)(=O)C(C)(C)C3)cnc2[C@H](C)OC)c2c3cc(ccc31)-c1csc(n1)C[C@H](NC(=O)[C@H]1C[C@@H]1C)C(=O)N1CCC[C@H](N1)C(=O)OCC(C)(C)C2 (atropisomer, axis not shown; (Ra)) [Compound Z665] | – | – | – | – | 0.11 | 0.32 | 0.78 | 0.21
10 | CCn1c(-c2cc(OCC(C)(C)N3CCS(=O)(=O)CC3)cnc2[C@H](C)OC)c2c3cc(ccc31)-c1csc(n1)C[C@H](NC(=O)[C@H]1[C@H](C)[C@@H]1C)C(=O)N1CCC[C@H](N1)C(=O)OCC(C)(C)C2 (atropisomer, axis not shown; (Ra)) [Compound Z667, (1r,2R,3S)—N-((6^1S,4S,Z)—(Ra)-1^2-(5-(2-(1,1-dioxidothiomorpholino)-2-methylpropoxy)-2-((S)-1-methoxyethyl)pyridin-3-yl)-1^1-ethyl-10,10-dimethyl-5,7-dioxo-6^1,6^2,6^3,6^4,6^5,6^6-hexahydro-1^1H-8-oxa-2(4,2)-thiazola-1(5,3)-indola-6(1,3)-pyridazinacycloundecaphane-4-yl)-2,3-dimethylcyclopropane-1-carboxamide] | – | – | – | – | 0.38 | 0.63 | 1.63 | 0.71
11 | CCn1c(-c2cc(C#C[C@H]3COCCN3C)cnc2[C@H](C)OC)c2c3cc(ccc31)-c1csc(n1)C[C@H](NC(=O)[C@H]1[C@H](C)[C@@H]1C)C(=O)N1CCC[C@H](N1)C(=O)OCC(C)(C)C2 (atropisomer, axis not shown; (Ra)) [Compound Z673, (1r,2R,3S)—N-((6^3S,4S,Z)-1^1-ethyl-(Ra)-1^2-(2-((S)-1-methoxyethyl)-5-(((S)-4-methylmorpholin-3-yl)ethynyl)pyridin-3-yl)-10,10-dimethyl-5,7-dioxo-6^1,6^2,6^3,6^4,6^5,6^6hexahydro-1^1H-8-oxa-2(4,2)-thiazola-1(5,3)-indola-6(1,3)-pyridazinacycloundecaphane-4-yl)-2,3-dimethylcyclopropane-1-carboxamide] | 0.33 | 0.27 | 0.52 | 0.23 | – | – | – | –
